Assay results taken from publication PMC8700061, “Fragment-Sized and Bidentate (Immuno)Proteasome Inhibitors Derived from Cysteine and Threonine Targeting Warheads” (Cells, 2021).
Marks after values point to notes of the source that are not given here.

Tests used:
β5 subunit of human cCP = target: T1, β5 subunit of human cCP (Homo sapiens, UniProt P20618+P28074); test: Inhibition of β5 activity (RA, IC50), Suc-LLVY-AMC; type: biochemical; details: 30 min pre-incubation, SDS
T1 construct: purchased Boston Biochem, Inc., Cambridge, MA, USA
Protocol: (§1) Residual activity measurements were performed at 10 μM final concentrations in the assay buffer (0.01% SDS, 50 mM Tris-HCl, 0.5 mM EDTA, pH 7.4). Stock solutions of the compounds were prepared in DMSO. To 50 μL of each compound in buffer, 25 μL of 0.8 nM human iCP or human cCP (both from Boston Biochem, Inc., Cambridge, MA, USA) were added. After incubation at 37 °C for 30 min, the reaction was started by adding of 25 μL of 100 μM relevant fluorogenic substrate: acetyl-Nle-Pro-Nle-Asp-AMC (Ac-nLPnLD-AMC, (Bachem, Bubendorf, Switzerland)) for β1, acetyl-Pro-Ala-Leu-7-amino-4-methylcoumarin (Ac-PAL-AMC, (Boston Biochem, Inc., Cambridge, MA, USA)) for β1i, t-butyloxycarbonyl-Leu-Arg-Arg-7-amino-4-methylcoumarin (Boc-LRR-AMC, (Bachem, Bubendorf, Switzerland)) for β2 and β2i, succinyl-Leu-Leu-Val-Tyr-7-amino-4-methylcoumarin (Suc-LLVY-AMC) (Bachem, Bubendorf, Switzerland) for β5 and β5i. Reaction progress was recorded on BioTek Synergy HT microplate reader by monitoring fluorescence at 460 nm (λex = 360 nm) for 90 min at 37 °C. The initial linear ranges were used to calculate velocity and determine residual activity. In the case of evaluation of β1, βi, β2, and β2i activities, the assay buffer was modified by replacing SDS with the proteasomal activator PA28α (Boston Biochem, Inc., Cambridge, MA, USA).
(§2) Final assay mixtures contained 0.2 nM human iCP or 0.2 nM human cCP in assay buffer (0.01% SDS (or PA28α in cases of β1, β1i subunits), 50 mM Tris-HCl, 0.5 mM EDTA, pH 7.4). Inhibitors were dissolved in DMSO and added to the black 96-well plates for at least eight different concentrations (the final concentration of DMSO was not more than 1%). After 30 min of incubation at 37 °C, the reaction was started by adding the substrate Suc-LLVY-AMC (for β5 and β5i) or Ac-nLPnLD-AMC (for β1) or Ac-PAL-AMC (for β1i). Fluorescence was monitored at 460 nm (λex = 360 nm) for 90 min at 37 °C. The progress of the reactions was recorded and the initial linear ranges were used to calculate the velocity. IC50 values were calculated using GraphPadPrism (GraphPad Software, San Diego, CA, USA) and are means from at least three independent determinations.

β1i subunit of human iCP = target: T2, β1i subunit of human iCP (Homo sapiens, UniProt P28065+P40306); test: Inhibition of β1i activity (RA, IC50), Ac-PAL-AMC; type: biochemical; details: PA28α; for IC50: 30 min pre-incubation; for remaining activity at 10 µM: Table 3, read-out: β1i residual activity at 10 µM
T2 construct: purchased Boston Biochem, Inc., Cambridge, MA, USA
Protocol: as §1, §2

β2 subunit of human cCP = target: T3, β2 subunit of human cCP (Homo sapiens, UniProt P49720+Q99436); test: Residual β2 activity, Boc-LRR-AMC; type: biochemical; details: PA28α; for β2 (RA [%]): 10 µM; for remaining activity at 10 µM: Table 3, read-out: β2 (RA [%])
T3 construct: purchased Boston Biochem, Inc., Cambridge, MA, USA
Protocol: as §1

[1] = UV-Vis-based stability assay in buffer; type: physicochemical; details: for Stability in Buffer (UV-Vis-based assay): after 1 h, assay buffer pH 7.4, 37 °C, 50 µM; for Stability in buffer solutions: assay buffer / PBS pH 7.4
Protocol: The aqueous stability of all compounds was determined spectrophotometrically by following the changes in the absorption spectra of the compounds. The buffer solution (50 mM Tris-HCl, 0.5 mM EDTA, pH 7.4) was pre-incubated at 37 °C. Aliquots of the compounds studied (1 mM in DMSO) were transferred to a 96-well flat-bottom UV-transparent microplate (Corning, CLS3635, Corning Inc, Corning, NY, USA) containing the buffer solution to obtain a 50 μM solution containing 5% DMSO (final volume, 300 μL). The plate was incubated without lid at 37 °C in a plate reader (Synergy H4, BioTek Instruments, Inc., Santa Clara, CA, USA) and the absorbance spectrum (244–400 nm) was acquired in sweep mode after 0, 15, 30, 60, 120, 180, and 240 min using a discontinuous kinetic procedure in Gen5 software (BioTek Instruments, Inc., Santa Clara, CA, USA). The time required to read the entire plate was 3 min. To determine the baseline, the compound solution was replaced with pure DMSO and subtracted from each reading. Compounds with an absorbance maximum of less than 0.20 AU were not evaluated using these assays due to the high experimental error. For other compounds, the relative absorbance difference between the first time point and 60 min at the most responsive wavelength was calculated. If the relative absorbance difference for the compound in the buffer was below 0.1, between 0.1–0.2, and above 0.2, the compound was classified as stable, intermediate, and unstable, respectively.

hAChE = target: T4, hAChE (Homo sapiens, UniProt P22303); test: Cholinesterase assay (Ellman), hAChE; type: biochemical; details: 30 min pre-incubation, read-out: Residual activity [%] ± SD, hAChE
T4 construct: gift of Xavier Brazzolotto, Florian Nachon and José Dias (IRBA, Brétigny-sur-Orge, France)
T4 sequence (P22303 32-614): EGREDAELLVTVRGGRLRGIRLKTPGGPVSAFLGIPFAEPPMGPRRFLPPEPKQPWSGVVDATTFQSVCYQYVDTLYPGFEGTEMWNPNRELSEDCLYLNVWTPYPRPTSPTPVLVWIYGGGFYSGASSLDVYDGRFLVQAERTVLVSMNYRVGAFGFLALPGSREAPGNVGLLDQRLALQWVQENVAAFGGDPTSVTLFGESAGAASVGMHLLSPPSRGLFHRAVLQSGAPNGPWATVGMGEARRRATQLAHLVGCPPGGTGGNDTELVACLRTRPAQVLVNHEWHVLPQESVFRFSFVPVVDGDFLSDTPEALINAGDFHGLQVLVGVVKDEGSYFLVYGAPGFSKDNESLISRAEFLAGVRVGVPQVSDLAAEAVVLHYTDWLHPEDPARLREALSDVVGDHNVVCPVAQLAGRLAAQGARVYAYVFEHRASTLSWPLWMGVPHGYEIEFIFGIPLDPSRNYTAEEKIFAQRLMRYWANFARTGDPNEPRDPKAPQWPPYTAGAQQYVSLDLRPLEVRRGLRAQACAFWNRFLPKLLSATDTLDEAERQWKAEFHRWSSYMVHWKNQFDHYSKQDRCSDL
Protocol: The activity of the compounds against ChEs, namely hAChE and hBChE, was determined by the Ellman method. 5,5′-Dithiobis-2-nitrobenzoic acid (Ellman’s reagent; DTNB), butyrylthiocholine iodide, and acetylthiocholine iodides were from Sigma-Aldrich. Recombinant hAChE and hBChE were kindly provided by Xavier Brazzolotto, Florian Nachon, and José Dias (IRBA, Brétigny-sur-Orge, France). Reactions were performed in a final volume of 300 µL of 0.1 M phosphate-buffered solution, pH = 8.0, containing 370 µM DTNB, 500 μM butyrylthiocholine/acetylthiocholine iodide, and approximately 1 nM or 50–100 pM hBChE or hAChE, respectively. The reactions were started by the addition of the substrate after 30-min pre-incubation at room temperature. The final organic solvent (DMSO) content was always 1%. The formation of the yellow 5-thio-2-nitrobenzoate anion was monitored for 2 min at 412 nm, using a 96-well microplate reader (Synergy HT, BioTek Instruments, Inc., Santa Clara, CA, USA). The initial velocities in the presence (vi) and absence (vo) of the test compounds were calculated. Inhibitory potencies were expressed as residual activities (RA), according to the equation RA = (vi − b)/(vo − b), where b is the blank value.

| SMILES | β5 (RA [%]) at 10 µM (β5 subunit of human cCP) [% ^c] | IC50 (β1i subunit of human iCP) [µM] | β2 (RA [%]) (β2 subunit of human cCP; Table 3) | Stability in Buffer (UV-Vis-based assay) [1] | remaining activity at 100 µM (hAChE) [%] | IC50 (β5 subunit of human cCP) [µM] | remaining activity at 10 µM (β1i subunit of human iCP) [%] | remaining activity at 10 µM (β2 subunit of human cCP) [%] | β2 (RA [%]) (β2 subunit of human cCP; Table 6) | Stability in buffer solutions [1] |
| --- | --- | --- | --- | --- | --- | --- | --- | --- | --- | --- |
| COc1cccc2oc(C#N)nc12 [Compound 6] | 63 | 78 | NA (NA, Not active (RA above 90%)) | stable ^c,d (relative absorbance difference for the compound in the buffer was below 0.1) | > 50 | – | – | – | – | – |
| N#Cc1nc2c(O)cccc2o1 [Compound 10] | – | – | – | stable ^c (relative absorbance difference for the compound in the buffer was below 0.1) | 27 ± 2 | 30 ± 12 | > 90 | > 90 | – | – |
| N#Cc1nc2cc(O)ccc2o1 [Compound 11] | 53 | – | – | stable ^c (relative absorbance difference for the compound in the buffer was below 0.1) | 27 ± 1 | – | > 90 | > 90 | – | – |
| N#Cc1nc2cccc(O)c2o1 [Compound 13] | – | – | – | stable ^c (relative absorbance difference for the compound in the buffer was below 0.1) | 25 ± 1 | 11 ± 9 | > 90 | 71 | – | – |
| CC(=O)Oc1cccc2oc(C#N)nc12 [Compound 14] | 56 | – | – | stable ^c (relative absorbance difference for the compound in the buffer was below 0.1) | 11 ± 2 | – | > 90 | > 90 | – | – |
| CC(=O)Oc1ccc2oc(C#N)nc2c1 [Compound 15] | 55 | – | – | stable ^c (relative absorbance difference for the compound in the buffer was below 0.1) | 33 ± 2 | – | > 90 | > 90 | – | – |
| C=Cc1nc(CC(=O)N[C@@H](CC(C)C)B2O[C@@H]3C[C@@H]4C[C@@H](C4(C)C)[C@]3(C)O2)cs1 [Compound 28] | – | 2.2 ± 0.1 | – | – | > 50 | 8.2 | – | – | NA (NA, Not active (RA above 95%)) | – |
| CC(C)C[C@H](NC(=O)CCn1c(C#N)nc2ccccc21)B1O[C@@H]2C[C@@H]3C[C@@H](C3(C)C)[C@]2(C)O1 [Compound 30] | – | 1.2 ± 0.1 | – | stable ^b,c (relative absorbance difference for the compound in the buffer was below 0.1) | > 50 | 0.7 ± 0.1 | – | – | NA (NA, Not active (RA above 95%)) | – |
| CC(C)C[C@H](NC(=O)CCCn1c(C#N)nc2ccccc21)B1O[C@@H]2C[C@@H]3C[C@@H](C3(C)C)[C@]2(C)O1 [Compound 31] | – | 6 ± 3.2 | – | stable ^b,c (relative absorbance difference for the compound in the buffer was below 0.1) | > 50 | 13 ± 4 | – | – | NA (NA, Not active (RA above 95%)) | – |
| CC(C)C[C@H](NC(=O)CCn1c(C#N)nc2ccccc21)B(O)O [Compound 34] | – | 2.8 ± 0.5 | – | – | > 50 | 1.8 ± 0.4 | – | – | NA (NA, Not active (RA above 95%)) | – |
| CC(C)C[C@H](NC(=O)CCCn1c(C#N)nc2ccccc21)B(O)O [Compound 35] | – | 9.4 ± 1.9 | – | stable ^b (relative absorbance difference for the compound in the buffer was below 0.1) | > 50 | 16 ± 8 | – | – | NA (NA, Not active (RA above 95%)) | – |
| CC(C)C[C@H](NC(=O)CCn1c(C#N)nc2cccc(Cl)c21)B1O[C@@H]2C[C@@H]3C[C@@H](C3(C)C)[C@]2(C)O1 [Compound 38] | – | 1.9 | – | stable ^b,c (relative absorbance difference for the compound in the buffer was below 0.1) | > 50 | 2 ± 0.7 | – | – | NA (NA, Not active (RA above 95%)) | – |
| CC(C)C[C@H](NC(=O)Cc1ccc2oc(C#N)nc2c1)B1O[C@@H]2C[C@@H]3C[C@@H](C3(C)C)[C@]2(C)O1 [Compound 39] | – | 1.3 | – | stable ^b,c (relative absorbance difference for the compound in the buffer was below 0.1) | > 50 | 3.6 ± 1.1 | – | – | NA (NA, Not active (RA above 95%)) | stable |
| CC(C)C[C@H](NC(=O)Cc1ccc2oc(C#N)nc2c1)B(O)O [Compound 40] | – | 2.1 ± 0.1 | – | stable ^b (relative absorbance difference for the compound in the buffer was below 0.1) | 46 ± 1 | 2 ± 0.7 | – | – | NA (NA, Not active (RA above 95%)) | stable |
